In assay [1] the test system is inflammation created by injecting carrageenin into the hind paws of rats. In words: Carrageenin Assay. The format is in vivo. The following applies: Rattus norvegicus, ip, 50 mg/kg i.p., prior to carrageenin injection, read-out: Percent Inhibition (Antiinflammatory Activity in the Carrageenin Assay). Here is the method:
The compounds were evaluated for antiinflammatory activity in the test method described by C. A. Winter, Proc. Soc. Exp. Biol. Med., 111, 544 (1962). In this test, inflammation is created by injecting carrageenin into the hind paws of rats. Test compounds are administered prior to injection to determine percent inhibition of the subsequent inflammation in comparison with control animals.

The subject of assay [2] is Arachidonic Acid Induced Ear Edema. The assay is described as follows: Arachidonic Acid-Induced Ear Edema Assay. The format is in vivo, Female BALB/C mice. The following applies: Mus musculus, 1 h, topical, one hour prior to arachidonic acid, read-out: Percent Inhibition of Ear Swelling; for inhibition in vivo at 0.05 %: 0.05% in ethanol gel; for inhibition in vivo at 1 %: 1% in ethanol gel. Here is the method: Female BALB/C mice (Charles River; 18-20 rams) were divided into groups of five. Arachidonic acid was dissolved in ethanol at a concentration of 200 mg/ml. Each mouse received 2 mg/ear of arachidonic acid on the inner surface of the right ear. This dose of phlogistic was applied by an automatic pipette in 10 mcl volumes. The left ear (control) received ethanol. Drugs were applied topically in an ethanol-based gel to the entire outer surface of both ears one hour prior to arachidonic acid application. Edema was measured by the increase in ear weight. An hour after arachidonic acid solution or vehicle was applied, an ear sample of 7 mm in diameter was obtained from both ears. Ear edema was calculated by subtracting the […], dividing by the weight of the left/Control ear, and averaging the results for each group of mice according to compound and concentration.

The test system of assay [3] is shock after E. coli LPS and galactosamine (GALN) challenge. In words: Mouse Endotoxin Shock Assay. The format is in vivo, C57BL/6 male mice. The settings on record: LPS/GALN s.c. challenge, results 48 hours after challenge, Reed Muench Method. Here is the method: Compounds were given to 18-20 g C57BL/6 male mice using various regimens depending upon mode of administration. Control animals received corresponding vehicles only. The mice were then challenged with 0.2 ml of chromatographically purified 0111:B4 E. coli LPS and galactosamine hydrochloride (GALN) given subcutaneously (back of the neck). GALN was given at an approximate dose of 500 mg/kg whereas the LPS dose ranged between 0.3-1.2 μg/mouse (15-60 μg/k9). Control animals generally die of shock 7-15 hours after administration of LPS/GALN although a small number (0-5%) may die 24-48 hours after such administration. Calculation of the EDso for each compound was performed using the Reed Muench Method for results obtained 48 hours after challenge.

For assay [4], the target named is T1, leukotriene B4 specific receptor on the membrane of human neutrophils (Homo sapiens, UniProt Q15722).
T1 construct: incubating neutrophils (1×10^7 cells) with 0.1-0.2 nM ^3 H-LTB4; endogenous in cells; host or cells: human peripheral blood neutrophils (buffy coats of two blood donors)
T1 sequence (Q15722 whole entry): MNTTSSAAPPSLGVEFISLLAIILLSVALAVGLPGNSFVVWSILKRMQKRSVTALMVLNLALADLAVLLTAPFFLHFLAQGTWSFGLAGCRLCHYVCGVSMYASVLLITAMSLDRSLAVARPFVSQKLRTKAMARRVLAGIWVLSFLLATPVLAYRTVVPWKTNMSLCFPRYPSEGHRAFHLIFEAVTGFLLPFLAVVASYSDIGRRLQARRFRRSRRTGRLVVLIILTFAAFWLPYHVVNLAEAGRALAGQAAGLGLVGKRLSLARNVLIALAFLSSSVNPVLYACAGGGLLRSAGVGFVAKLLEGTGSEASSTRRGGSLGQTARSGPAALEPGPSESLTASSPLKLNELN
The assay is described as follows: Inhibition of Binding of ^3 H-LTB4 to Peripheral Human Neutrophils. The settings on record: 4° C., 10 minutes; for inhibition at 10 µM: drug concentration 10^-5 M, read-out: LTB4 Binding Inhibition; for inhibition at 1 µM: drug concentration 10^-6 M; for inhibition at 0.1 µM: drug concentration 10^-7 M. In outline:
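Freshly isolated human donor neutrophils (1×10^7 cells) in HBSS/0.1% ovalbumin pH 7.3 were incubated with 0.1-0.2 nM ^3H-LTB4 and compound at 1×10^-5 or 1×10^-6 M for 10 min at 4 °C. Bound ligand was separated by centrifugation through phthalate oil and counted, then corrected for nonspecific binding and compared with compound-free control.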

For assay [5], the system named is IL-1 induced T-cell Proliferation. In words: Anti IL-1 Activity (Thymocyte Assay): suppression of IL-1 induced T-cell proliferation. The following applies: mouse thymocytes, 48 hours, read-out: Percent T-cell suppression; for inhibition at 1 µg/mL: 1 mcg/ml; for inhibition at 10 µg/mL: 10 mcg/ml. The assay is classed as cell-based, C3H/HeJ male mice. The procedure: Thymus from 3-4 week old C3H/HeJ male mice and were passed through a #100 mesh screen to make a single cell suspension. The cells were suspended in RPMI-1640 supplemented with 2×10^-5 M 2-mercaptoethanol, 3% fetal calf serum, and 1% Penicillin/Streptomycin. The cell suspension was placed in a tissue culture flask and incubated at 37° C. in 5% carbon dioxide in air for 1-2 hours. The thymocytes were decanted, leaving adherent cells behind, and the liquid was centrifuged at 1400 rpm for 10 minutes. After decanting the supernatant, the cells were resuspended and counted with a hemocytometer. The density was adjusted to […]. Fifty μ1 of the suspension were added to each well of a 96-well microtiter plate, followed by the addition of 25 μl of PHA and 25 μl IL-1 (1:25 dilution of a 10 mcg/ml stock solution) per well.
Each compound to be tested was dissolved in 30% DMSO/70% PBS to make a stock solution of 1 mg/ml. Fifteen μl of each compound were added to 300 μl of media in the serial dilution plate. Twenty-five μl of each drug were added to the test plate in quadruplicate wells across the plate. The plate was incubated at 37° C. in 5% carbon dioxide in air for 48 hours. The wells were pulsed with tritiated thymidine (5 μCi.well) for 4 hours before harvesting on a Skatron cell harvester. The filter discs were placed in mini-vials, scintillation fluid (Tol-Pop) was added, and the vials counted. The percent of counts for each vial compared with control samples wherein no compound was added (vehicles only) was determined for each compound and are reported as Table III below as the percent T-ce1 suppression.

What is called ED50 is the dose at which the effect has come halfway, by size or by number of responders. The low end stands for an effect at a small dose, the high end for a need for a large dose.

Molecules are shown by their SMILES.

For the compound `C=CCc1cc(C(C)=O)c(O)cc1OCc1cccc(C#N)c1` [Example 50], the inhibition in vivo at 50 mg/kg in assay [1] was 50 to 82%. Further, the inhibition in vivo at 0.05 % in assay [2] was in the range of 29 to 47%. This compound showed an ED50 in assay [3] of 9.5 mg/kg. In addition, in assay [4], the inhibition at 10 µM came to 67%, the inhibition at 1 µM was 66% and the inhibition at 0.1 µM was found to be 25%.

In the case of `CCc1cc(C(C)=O)c(O)cc1OCCCCC#N` [Example 19, 5-(4-Acetyl-2-ethyl-5-hydroxyphenoxy)-pentanenitrile], the inhibition in vivo at 50 mg/kg in assay [1] came to 26%. In addition, in assay [4], the inhibition at 10 µM is 90% and the inhibition at 1 µM was 61%.

Consider `C=CCc1cc(C(C)=O)c(O)cc1OCc1ccccc1` [Example 47, 2-Hydroxy-4-benzyloxy-5-allylacetophenone], for which the inhibition in vivo at 50 mg/kg in assay [1] was in the range of 53 to 65%. The inhibition in vivo at 0.05 % in assay [2] stood at 52%. Also, the ED50 in assay [3] stood at 24 mg/kg. Moreover, in assay [4], the inhibition at 10 µM was 32% and the inhibition at 1 µM was found to be 5%.

In the case of `CCc1cc(C(C)=O)c(O)cc1OCCCCCCC(=O)N(C)C` [Example 98, 7-(4-Acetyl-2-ethyl-5-hydroxyphenoxy)-N,N-dimethylheptanamide], in assay [2], the inhibition in vivo at 1 % was determined as 17%. For the same compound, in assay [5], the inhibition at 1 µg/mL stood at 14% and the inhibition at 10 µg/mL was 85%. In assay [4], the inhibition at 10 µM came out at 100% and the inhibition at 1 µM was found to be 61%.

`CCc1cc(C(C)=O)c(O)cc1OCc1cccc(C#N)c1` [Example 55]: the inhibition in vivo at 50 mg/kg in assay [1] came out at 70%. In addition, in assay [2], the inhibition in vivo at 0.05 % lay within 43 to 59% and the inhibition in vivo at 1 % was 57%. The same compound yielded an ED50 in assay [3] of 3.1 mg/kg. Moreover, in assay [4], the inhibition at 10 µM was 60%, the inhibition at 1 µM turned out to be 71% and the inhibition at 0.1 µM turned out to be 25%.

With `CCc1cc(C(C)=O)c(O)cc1OCCCC(C)(C)c1nnn[nH]1` [Example 136, 1-(5-Ethyl-2-hydroxy-4-{[4-methyl-4-(1H-tetrazol-5-yl)pentyl]oxy}phenyl)ethanone], the inhibition in vivo at 50 mg/kg in assay [1] was 41%. In assay [4], the inhibition at 10 µM was 100% and the inhibition at 1 µM was determined as 77%.

With `CCc1cc(C(C)=O)c(O)cc1OCc1cccc(C(=O)OC)c1` [Example 93], in assay [3], the ED50 stood at 25 mg/kg. Besides, in assay [4], the inhibition at 10 µM worked out at 64% and the inhibition at 1 µM came out at 22%.

With `CCCc1cc(C(C)=O)c(O)cc1OCCCc1ccccc1` [Example 53, 2-Hydroxy-4-(3-phenylpropoxy)-5-propyl-acetophenone], in assay [1], the inhibition in vivo at 50 mg/kg was in the range of 50 to 60%. Moreover, in assay [2], the inhibition in vivo at 0.05 % is 24%. For the same compound, in assay [4], the inhibition at 10 µM is 5% and the inhibition at 1 µM was 13%.

With `C=CCc1cc(C(C)=O)c(O)cc1OCCCCCCSC` [Example 78, 2-Hydroxy-4-[6-(methylthio)hexyloxy]-5-allylaoetophenone], the inhibition in vivo at 1 % in assay [2] is 46%. For the same compound, in assay [4], the inhibition at 10 µM came to 78% and the inhibition at 1 µM turned out to be 38%.

With `CCc1cc(C(C)=O)c(O)cc1OCCCCc1nnn(C)n1` [Example 123, 2-Hydroxy-4-[4-(2-methyl-2H-tetrazol-5-yl)butoxy]-5-ethylacetophenone], the inhibition in vivo at 50 mg/kg in assay [1] came out at 55%. In assay [2], the inhibition in vivo at 1 % was found to be 58%. Further, in assay [5], the inhibition at 1 µg/mL came to 36% and the inhibition at 10 µg/mL came out at 90%. In addition, in assay [4], the inhibition at 10 µM is 98% and the inhibition at 1 µM amounted to 60%.

As to `CCc1cc(C(C)=O)c(O)cc1OCc1cccc(SC)c1` [Example 59, 4-(3-Methylmercaptobenzyloxy)-5-ethyl-2-hydroxyacetophenone], in assay [2], the inhibition in vivo at 0.05 % stood at 0%. Besides, in assay [4], the inhibition at 10 µM worked out at 58% and the inhibition at 1 µM turned out to be 23%.

Regarding `C=CCc1cc(C(C)=O)c(O)cc1OCc1cccc(-c2nnn(C)n2)c1` [Example 121], the inhibition in vivo at 0.05 % in assay [2] worked out at 0%. In assay [4], the inhibition at 10 µM lay in the range of 27 to 38% and the inhibition at 1 µM was 34 to 38%.

Regarding `C=CCc1cc(C(C)=O)c(O)cc1OCCCCCC(=O)NO` [Example 100, 6-(4-Acetyl-5-hydroxy-2-allylphenoxy)-droxyhexanamide], the inhibition in vivo at 50 mg/kg in assay [1] was found to be 38%. The inhibition in vivo at 1 % in assay [2] stood at 18%. Also, in assay [4], the inhibition at 10 µM was 84% and the inhibition at 1 µM is 28%.

`CCc1cc(C(C)=O)c(O)cc1OCc1cccc(F)c1` [Example 54, 5-Ethyl-4-(3-fluorobenzyloxy)-2-hydroxy-acetophenone] gave an ED50 in assay [3] of 21 mg/kg. Further, in assay [4], the inhibition at 10 µM was 42% and the inhibition at 1 µM was 32%.

As to `CCc1cc(C(C)=O)c(O)cc1OCCCCCCc1nnn[nH]1` [Example 140, 1-(5-Ethyl-2-hydroxy-4-{[6-(1H-tetrazol-5-yl)-hexyl]oxy}phenyl)ethanone], the inhibition in vivo at 50 mg/kg in assay [1] was found to be 31%. In assay [4], the inhibition at 10 µM turned out to be 94% and the inhibition at 1 µM was 59%.

Turning to `CCc1cc(C(C)=O)c(O)cc1OCCCCCC(C)(C)C(=O)O` [Example 87, 7-(4-Acetyl-2-ethyl-5-hydroxyphenoxy)-2,2-dimethylheptanoic acid], the inhibition in vivo at 50 mg/kg in assay [1] was 15%. The inhibition in vivo at 1 % in assay [2] was determined as 3%. Further, in assay [4], the inhibition at 10 µM was 104%, the inhibition at 1 µM stood at 73% and the inhibition at 0.1 µM is 20%.

`CCc1cc(C(C)=O)c(OC)cc1OCc1cccc(C#N)c1` [Example 114]: in assay [2] (0.01% in ethanol gel), the inhibition in vivo at 0.01 % is 44%. Besides, the inhibition in vivo at 0.05 % in assay [2] turned out to be 40%. Besides, in assay [4], the inhibition at 10 µM was 52% and the inhibition at 1 µM is 8%.

Turning to `CCc1cc(C(C)=O)c(O)cc1OCCCCCCC#N` [Example 20, 7-(4-Acetyl-2-ethyl-5-hydroxyphenoxy)-heptanenitrile], the inhibition in vivo at 50 mg/kg in assay [1] worked out at 19%. In assay [5], the inhibition at 1 µg/mL amounted to 39% and the inhibition at 10 µg/mL was 99%. In assay [4], the inhibition at 10 µM turned out to be 102% and the inhibition at 1 µM amounted to 72%.

As for `CCc1cc(C(C)=O)c(O)cc1OCCCCc1nn[nH]n1` [Example 110, 5-Ethyl-2-hydroxy-4-[4-(lH-tetrazol-5-y)butoxy]acetophenone], the inhibition in vivo at 50 mg/kg in assay [1] turned out to be 64%. Further, the inhibition in vivo at 1 % in assay [2] was determined as 58%. Moreover, in assay [4], the inhibition at 10 µM worked out at 49% and the inhibition at 1 µM was determined as 19%.

Values taken from US5098613A, “Anti-inflammatory agents” (Eli Lilly and Company, priority 1990, dated 1992).
